Results from article PMC12358976, “NMR-Based Fragment Screen of the von Hippel-Lindau Elongin C&B Complex” (ACS Medicinal Chemistry Letters, 2025).

Target: T1, VHL-Elongin C-Elongin B (VCB) complex (Homo sapiens, UniProt P40337)
T1 construct: gene (residues 54-213) was cloned into pET28a(+) vector; Elongin C (residues 17-112); His-tag (cleaved yes); made in house; host or cells: E. coli BL21(DE3), M9 minimal media with 15NH4Cl
Assay: Protein-observed NMR (1H-15N TROSY) titration of fragment hits against 15N-labeled VCB
Format: binding
Settings: not given
Method: All NMR experiments were carried out at 310K using a 900 MHz Bruker Avance III spectrometer equipped with a TXI/TCI CryoProbe and a Bruker SampleJet. Two-dimensional 1H-15N TROSY spectra of VCB complex were recorded using 30-minute acquisition time and analyzed using Topspin 4.1.4 (Bruker). […]
screened as mixtures of 12 fragments prepared in twelve 96-well plates. Each NMR sample was made of 100µM of 15N-labeled VCB, 800µM of each fragment, and 5% DMSO-d6 for spectrometer locking in 3mm-diameter NMR tubes (Bruker). Hit mixtures were identified by comparing the chemical shifts of the backbone resonances to a ligand-free VCB spectrum and then deconvoluted by screening individual fragments.
TROSY titration experiments were used to determine binding affinity of the fragment hits identified from the screen. […]

T1 sequence (P40337 54-213): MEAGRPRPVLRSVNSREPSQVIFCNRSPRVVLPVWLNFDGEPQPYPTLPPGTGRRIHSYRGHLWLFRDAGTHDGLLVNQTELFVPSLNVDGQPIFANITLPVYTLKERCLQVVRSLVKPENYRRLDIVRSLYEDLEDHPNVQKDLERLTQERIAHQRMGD
T1 sequence (Q15369 17-112, further chain): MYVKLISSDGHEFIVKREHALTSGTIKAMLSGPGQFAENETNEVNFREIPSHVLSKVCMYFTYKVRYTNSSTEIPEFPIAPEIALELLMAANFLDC
T1 sequence (Q15370 1-104 partner limits assumed): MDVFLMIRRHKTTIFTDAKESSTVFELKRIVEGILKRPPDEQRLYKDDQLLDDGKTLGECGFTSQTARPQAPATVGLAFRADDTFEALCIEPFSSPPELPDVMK

**Q.** For `CC(C)N1CCN(Cc2ccccc2F)CC1` [compound 14], which Kd is on record?
**A.** Its Kd is 3700 µM.

Same assay, conditions: TROSY titration, fragment 0.31-10 mM, 310K, Hill's equation model; hits grouped by binding pocket (A unknown, B VHL cryptic, C Elongin C, D HIF1α); read-out: NMR-derived binding affinity (KD)

**Q.** For `O=C1CCc2cc([N+](=O)[O-])ccc2N1` [compound 1], which Kd is on record?
**A.** Its Kd is 1700 µM.

**Q.** For `Nc1nc2ccccc2n1Cc1ccccc1` [compound 2], which Kd is on record?
**A.** Its Kd is 490 µM.

**Q.** For `CC(C)OC(=O)c1ccc(Cl)c(N)c1` [compound 4], which Kd is on record?
**A.** Its Kd is 5600 µM.

**Q.** With `CC(C)NC(=O)c1cc2ccc3cccnc3c2[nH]1` [compound 5] as the molecule, how does the Kd read?
**A.** Its Kd is 8200 µM.

**Q.** Which Kd does the source give for `Clc1ccc(CN2CCCCC2)cc1Cl` [compound 6] here?
**A.** The Kd was 450 µM.

**Q.** For `CC(=O)c1cccc(NC(=O)c2cccs2)c1` [compound 7], which Kd is on record?
**A.** The Kd was 470 µM.

**Q.** How did the Kd turn out when `SC1=NC2(CCCC2)N=C1c1ccccc1` [compound 8] was run?
**A.** Its Kd is 530 µM.

**Q.** `CC(=O)N1CCc2ccc([N+](=O)[O-])cc21` [compound 9] was tested. Which Kd did it give?
**A.** The Kd was 660 µM.

**Q.** With `O=C(Nc1ccc(F)c(Cl)c1)c1cnccn1` [compound 10] as the molecule, how does the Kd read?
**A.** Its Kd is 710 µM.

**Q.** How did the Kd turn out when `Cc1cc(Nc2cccc(O)c2)c2cccc(C)c2n1` [compound 11] was run?
**A.** The Kd was 1600 µM.

**Q.** Which Kd does the source give for `CN(C)CCN(C)Cc1ccc(F)cc1` [compound 12] here?
**A.** Its Kd is 1300 µM.

**Q.** Which Kd does the source give for `Nc1ccc2c(c1)ncn2CCO` [compound 15] here?
**A.** Its Kd is 4000 µM.

**Q.** With `Cc1nc2cc(C(=O)O)ccc2n1C` [compound 16] as the molecule, how does the Kd read?
**A.** Its Kd is 6000 µM.

**Q.** For `O=C(O)c1ccnc2[nH]cnc12` [compound 17], which Kd is on record?
**A.** The Kd was 7500 µM.
